In one data set the target is purified PARP protein (Homo sapiens, UniProt P09874). Briefly: PARP Enzyme Inhibition Assay. It counts as biochemical. The conditions noted are these: [32P]NAD+ incorporation, 500 μM NAD+, 25° C.; competitive inhibition fit; read-out: Inhibition Constant Ki. As to the method: The PARP enzyme-inhibiting activities of test compounds were assayed as described by Simonin et al. (J. Biol. Chem. (1993), 268:8529-8535) and Marsischky et al. (J. Biol. Chem. (1995), 270:3247-3254) with minor modifications as follows. Samples (50 μL) containing 20 nM purified PARP protein, 10 μg/mL DNAse I-activated calf thymus DNA (sigma), 500 μM NAD^+, 0.5 μCi [^32P]NAD^+, 2% DMSO, and various concentrations of test compounds were incubated in sample buffer (50 mM Tris pH 8.0, 10 mM MgCl2, 1 mM tris(carboxyethyl)phosphine HCl) at 25° C. for 5 minutes. Under these conditions, the reaction rate was linear for times up to 10 minutes. The reaction was stopped by the addition of an equal volume of ice-cold 40% trichloroacetic acid to the samples, which were then incubated on ice for 15 minutes. The samples were then transferred to a Bio-Dot microfiltration apparatus (BioRad), filtered through Whatman GF/C glass-fiber filter paper, washed 3 times with 150 μL of wash buffer (5% trichloroacetic acid, 1% inorganic pyrophosphate), and dried. [^32P]ADP-Ribose incorporation into the acid-insoluble material was quantitated using a PhosphorImager (Molecular Dynamics) and ImageQuant software. Inhibition constants (Ki) were calculated by non-linear regression analyses using the velocity equation for competitive inhibition (Segel, Enzyme Kinetics: Behavior and Analysis of Rapid Equilibrium and Steady-State Enzyme Systems, John Wiley & Sons, Inc., New York (1975), 100-125). In the case of tight-binding inhibitors, 5 nM enzyme was used and the reaction was incubated at 25° C. for 25 minutes. Ki values for tight-binding inhibitors were calculated using the equation described by Sculley et al. (Biochim. Biophys. Acta (11986), 874:44-53).
Sequence of purified PARP protein (P09874 whole entry): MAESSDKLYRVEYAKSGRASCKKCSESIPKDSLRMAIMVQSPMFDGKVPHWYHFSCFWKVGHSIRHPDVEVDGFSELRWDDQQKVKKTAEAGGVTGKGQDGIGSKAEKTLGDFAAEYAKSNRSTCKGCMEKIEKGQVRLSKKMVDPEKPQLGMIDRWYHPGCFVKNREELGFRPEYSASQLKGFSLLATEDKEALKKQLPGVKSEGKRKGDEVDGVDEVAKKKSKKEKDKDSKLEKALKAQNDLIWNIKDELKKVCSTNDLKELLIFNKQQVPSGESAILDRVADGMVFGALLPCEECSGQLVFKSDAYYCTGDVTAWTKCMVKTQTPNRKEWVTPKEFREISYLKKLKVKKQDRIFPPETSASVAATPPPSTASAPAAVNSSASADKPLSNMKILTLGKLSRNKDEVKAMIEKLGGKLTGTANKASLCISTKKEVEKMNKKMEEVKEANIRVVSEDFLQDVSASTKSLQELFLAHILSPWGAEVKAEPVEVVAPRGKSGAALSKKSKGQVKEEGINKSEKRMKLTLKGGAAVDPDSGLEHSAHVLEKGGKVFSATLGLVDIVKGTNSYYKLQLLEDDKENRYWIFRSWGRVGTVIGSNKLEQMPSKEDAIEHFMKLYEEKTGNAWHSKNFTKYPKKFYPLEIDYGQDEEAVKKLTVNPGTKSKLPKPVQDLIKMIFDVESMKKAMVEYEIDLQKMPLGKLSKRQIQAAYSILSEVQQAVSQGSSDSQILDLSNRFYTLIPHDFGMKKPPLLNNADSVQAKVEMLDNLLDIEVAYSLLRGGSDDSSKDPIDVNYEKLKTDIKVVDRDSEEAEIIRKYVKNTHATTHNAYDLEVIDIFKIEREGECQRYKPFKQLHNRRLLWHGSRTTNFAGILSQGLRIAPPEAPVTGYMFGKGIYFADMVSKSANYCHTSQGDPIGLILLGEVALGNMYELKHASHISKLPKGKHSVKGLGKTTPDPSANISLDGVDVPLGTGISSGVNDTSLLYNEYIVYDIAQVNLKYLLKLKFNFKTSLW

Another data set relates to A549 cells. As to the kind of experiment: Cytotoxicity Potentiation Assay. It is filed as cell-based. The conditions noted are these: ratio of IC50 of topotecan alone to IC50 of topotecan in combination with test compound. As to the method:
A549 cells (ATCC, Rockville, Md.) were seeded into 96-well cell culture plates (Falcon brand, Fisher Scientific, Pittsburgh, Pa.) 16 to 24 hours before experimental manipulation. Cells were then treated with a test compound (or a combination of test compounds where indicated) for either 3 days or 5 days. At the end of treatments, relative cell number was determined either by MTT assay or SRB assay. For the MTT assay, 0.2 μg/μl of MTT (3-(4,5-dimethylthiazol-2-yl)-2,5-diphenyltetrazolium bromide, Sigma Chemical Co., St. Louis, Mo.) was added to each well of a plate, and the plate was incubated in a cell-culture incubator for 4 hours. Metabolized MTT in each well was solubilized in 150 μl of DMSO (Sigma Chemical Co.) with shaking and quantified with a Wallac 1420 Victor plate reader (EG & G Wallac, Gaithersburg, Md.) at 540 nm. For the SRB assay, cells were fixed with 10% trichloroacetic acid (Sigma Chemical Co) for an hour at 4° C. After extensively washing, fixed cells were stained for 30 minutes with 0.4% sulforhodamine B (SRB, Sigma Chemical Co.) in 1% acetic acid (Sigma Chemical Co). Unbound SRB was washed away with 1% acetic acid. Then the cultures were air-dried, and bound dye was solubilized with 10 mM unbuffered Tris base (Sigma Chemical Co) with shaking. The bound dye was measured photometrically with the Wallac Victor plate reader at 515 nm. The ratio of the OD (optical density) value of a compound-treated culture to the OD value of a mock-treated culture, expressed in percentage, was used to quantify the cytotoxicity of a compound. The concentration at which a compound causes 50% cytotoxicity is referred to as IC50. To quantify the potentiation of the cytotoxicity of topotecan or temozolomide by test compounds, a dimensionless parameter PF50 is used and is defined as the ratio of the IC50 Of topotecan or temozolomide alone to the IC50 of topotecan or temozolomide in combination with a test compound. For the compounds of the invention, PF50 values were determined by testing with topotecan.

Molecules are shown by their SMILES.

With `CN(CCc1ccccc1)Cc1nc2c(C(N)=O)cccc2[nH]1` [Compound 18, 2-[(Methyl-phenethyl-amino)-methyl]-1H-benzimidazole-4-carboxylic Acid Amide], the Ki (commonly a dissociation constant, usually derived from enzyme kinetics or from competition with a known ligand) on purified PARP protein worked out at 8.6 ± 0.1 nM. Further, in the data set with A549 cells, the “Cytotoxicity Potentiation PF50” value turned out to be 1.4.

As for `CC(=O)Nc1ccc(CSc2nc3c(C(N)=O)cccc3[nH]2)cc1` [Compound 42, 2-(4-Acetylamino-benzylsulfanyl)-1H-benzimidazole-4-carboxylic Acid Amide], the Ki at purified PARP protein amounted to 11 ± 3 nM. Also, in the data set on A549 cells, the “Cytotoxicity Potentiation PF50” value is on record as 1.1.

Consider `NC(=O)c1cccc2[nH]c(CSc3ccccc3C3=NCCCN3)nc12` [Compound 7], for which the Ki at purified PARP protein was 6.9 ± 0.4 nM. Further, the “Cytotoxicity Potentiation PF50” value in the data set with A549 cells is 2.2.

As for `NC(=O)c1cccc2[nH]c(CS(=O)(=O)c3ccc(NC(=O)CO)cc3)nc12` [Compound 49], the Ki at purified PARP protein is 7.4 nM. The “Cytotoxicity Potentiation PF50” value with A549 cells amounted to 1.0.

Consider `NC(=O)c1cccc2[nH]c(C[S+]([O-])c3ccc([N+](=O)[O-])cc3)nc12` (stereo not shown) [Compound 28, 2-(4-Nitro-benzenesulfinylmethyl)-1H-benzimidazole-4-carboxylic Acid Amide], for which the Ki on purified PARP protein is 3.9 ± 0.6 nM. The “Cytotoxicity Potentiation PF50” value in the data set with A549 cells stood at 1.4.

Consider `CC(=O)Nc1ccc(SCc2nc3c(C(N)=O)cccc3[nH]2)cc1` [Compound 9, 2-(4-Acetylamino-phenylsulfanylmethyl)-1H-benzimidazole-4-carboxylic Acid Amide], for which the Ki on purified PARP protein turned out to be 10 ± 3 nM. The “Cytotoxicity Potentiation PF50” value with A549 cells was found to be 1.1.

Regarding `NC(=O)c1cccc2[nH]c(CS(=O)(=O)c3ccc(O)cc3)nc12` [Compound 29, 2-(4-Hydroxy-benzenesulfonylmethyl)-1H-benzimidazole-4-carboxylic Acid Amide], the Ki on purified PARP protein worked out at 24 nM. Moreover, the “Cytotoxicity Potentiation PF50” value in the data set with A549 cells was found to be 1.2.

Regarding `NC(=O)c1cccc2[nH]c(CS(=O)(=O)c3ccc([N+](=O)[O-])cc3)nc12` [Compound 27, 2-(4-Nitro-benzenesulfonylmethyl)-1H-benzimidazole-4-carboxylic Acid Amide], on purified PARP protein, the Ki stood at 2.5 ± 0.2 nM. Also, the “Cytotoxicity Potentiation PF50” value in the data set with A549 cells stood at 1.3.

Take `NC(=O)c1cccc2[nH]c(CS(=O)(=O)c3ccc(NC(=O)OCc4ccccc4)cc3)nc12` [Compound 38, [4(4-Carbamoyl-1H-benzoimidazol-2-ylmethanesulfonyl)-phenyl]-carbamic Acid Benzyl Ester]: the Ki at purified PARP protein came out at 16 ± 1 nM. The “Cytotoxicity Potentiation PF50” value in the data set with A549 cells was determined as 1.1.

As for `CCCCNCCSCc1nc2c(C(N)=O)cccc2[nH]1` [Compound 1, 2-(2-Butylamino-ethylsulfanylmethyl)-1H-benzimidazole-4-carboxylic Acid Amide], at purified PARP protein, the Ki is 29 ± 7 nM. Besides, the “Cytotoxicity Potentiation PF50” value with A549 cells is recorded as 1.2.

Regarding `CC(=O)c1ccc(N2CCN(Cc3nc4c(C(N)=O)cccc4[nH]3)CC2)cc1` [Compound 17, 2-[4-(4-Acetyl-phenyl)-piperazin-1-vimethyl]-1H-benzimidazole-4-carboxylic Acid Amide], the Ki on purified PARP protein amounted to 19 ± 2 nM. For the same compound, the “Cytotoxicity Potentiation PF50” value in the data set on A549 cells worked out at 1.2.

As to `NC(=O)c1cccc2[nH]c(CS(=O)(=O)c3ccc(C(F)(F)F)cc3)nc12` [Compound 34, 2-(4-Trifluoromethyl-benzenesulfonylmethyl)-1H-benzimidazole-4-carboxylic Acid Amide], the inhibitory constant (Ki) at purified PARP protein came to 12 ± 1 nM. In addition, the “Cytotoxicity Potentiation PF50” value with A549 cells was found to be 1.2.

Consider `CC(=O)Nc1ccc(S(=O)(=O)Cc2nc3c(C(N)=O)cccc3[nH]2)cc1` [Compound 32, 2-(4-Acetylamino-benzenesulfonylmethyl)-1H-benzimidazole-4-carboxylic Acid Amide], for which, at purified PARP protein, the Ki is 3.8 ± 0.5 nM. The “Cytotoxicity Potentiation PF50” value in the data set on A549 cells amounted to 1.1.

`NC(=O)c1cccc2[nH]c(CN3CCc4ccccc4C3)nc12` [Compound 19, 2-(3,4-Dihydro-1H-isoqluinolin-2-ylmethyl)-1H-benzimidazole-4-carboxylic Acid Amide]: on purified PARP protein, the Ki is 22 ± 2 nM. Also, the “Cytotoxicity Potentiation PF50” value in the data set with A549 cells worked out at 1.1.

On to `COc1ccc(S(=O)(=O)Cc2nc3c(C(N)=O)cccc3[nH]2)cc1` [Compound 33, 2-(4-Methoxy-benzenesulfonylmethyl)-1H-benzimidazole-4-carboxylic Acid Amide], for which the Ki at purified PARP protein turned out to be 10.3 ± 0.3 nM. Moreover, the “Cytotoxicity Potentiation PF50” value in the data set on A549 cells stood at 1.3.

Consider `CC(=O)Nc1ccc(S(=O)(=O)Cc2nc3c(C(N)=O)cccc3n2C)cc1` [Compound 48, 2-(4-Acetylamino-benzenesulfonylmethyl)-1-methyl-1H-benzoimidazole-4-carboxylic Acid Amide], for which the Ki on purified PARP protein worked out at 10 ± 3 nM. For the same compound, the “Cytotoxicity Potentiation PF50” value in the data set on A549 cells turned out to be 1.2.

With `CCCCNCCS(=O)(=O)Cc1nc2c(C(N)=O)cccc2[nH]1` [Compound 30, 2-(2-Butylamino-ethanesulfonylmethyl)-1H-benzimidazole-4-carboxylic Acid Amide], the Ki at purified PARP protein is 26 nM. The “Cytotoxicity Potentiation PF50” value in the data set with A549 cells is given as 1.1.

For the compound `CCC(=O)Nc1ccc(SCc2nc3c(C(N)=O)cccc3[nH]2)cc1` [Compound 24, 2-(4-Propionylamino-phenylsulfanylmethyl)-1H-benzimidazole-4-carboxylic Acid Amide], the Ki on purified PARP protein worked out at 36 ± 2 nM.

For the compound `CN(Cc1nc2c(C(N)=O)cccc2[nH]1)Cc1ccccc1O` [Compound 15], the Ki on purified PARP protein was found to be 45 ± 3 nM.

Take `CS(=O)(=O)c1ccc(S(=O)(=O)Cc2nc3c(C(N)=O)cccc3[nH]2)cc1` [Compound 35, 2-(4-Methanesulfonyl-benzenesulfonylmethyl)-1H-benzimidazole-4-carboxylic Acid Amide]: the Ki on purified PARP protein was 5 ± 1 nM.

The values are drawn from patent publication US20040034078A1 (Agouron Pharmaceuticals, Inc., priority 2002, published 2004).
